Measurements published in publication PMC8201173, “Inhibition of Carbonic Anhydrase IX Promotes Apoptosis through Intracellular pH Level Alterations in Cervical Cancer Cells” (International Journal of Molecular Sciences, 2021).

Legend:
Format in all cases: cell-based
HEK-293 = experiment: WST-1 cytotoxicity assay, HEK-293; details: Homo sapiens
Procedure: (§1) We used cancer and normal cell lines purchased from ATCC (American Type Culture Collection) and ECACC (European Collection of Authenticated Cell Cultures) and stored in liquid nitrogen. HT-29 (ATCC: HTB-38, colon adenoma cancer), HeLa (ATCC: CCL-2, cervix adenoma cancer cell), MDA-MB-231 (ATCC: HTB-26, breast adenoma cancer cell), and HEK-293 (ATCC: CRL-1573, embryonic kidney epithelial cell) cell lines were incubated in DMEM-F12 (Sigma-Aldrich, Germany), including 10% Fetal Bovine Serum (FBS), 100 μg/mL streptomycin/100 IU/mL penicillin, at 37 °C in an incubator containing 5% CO2, 95% air in a humid atmosphere. PNT-1A (ECACC: 95012614, normal prostate cells) cell line was incubated in RPMI-1640 medium, including %10 FBS, 100 μg/mL streptomycin/100 IU/mL penicillin, at 37 °C in an incubator containing 5% CO2, 95% air in a humid atmosphere.
(§2) The cytotoxic effects of compound E were evaluated with WST kit (Roche, Basel, Switzerland) in accordance with manufacturer protocols. The cells were planted in 96 well plates (10^4 cells per well). After 24 h of incubation, compound E at doses of 0, 2.5, 5, 10, 25, 50, 100, and 200 μM was administrated on the cell lines for 24, 48, and 72 h, and 5-FU on the control cell line with the same doses. WST-1 reactive of 10 µL was added in all wells. Following 4 h incubation, the measurements were carried out in a plate reader (Spectramax M5, BioTek, VT, USA) at wavelengths of 450 and 630 nm. Consequently, graphs were created, and the IC50 values of compound E and 5-fluorouracil were calculated. Selectivity index (SI) can be defined as the ratio of the toxic concentration of a sample against its effective compound concentration.

PNT1-A = experiment: WST-1 cytotoxicity assay, PNT1-A; details: Homo sapiens, PNT1A
Procedure: as §1, §2

MDA-MB-231 = experiment: WST-1 cytotoxicity assay, MDA-MB-231; details: Homo sapiens
Procedure: (§3) We used cancer and normal cell lines purchased from ATCC (American Type Culture Collection) and ECACC (European Collection of Authenticated Cell Cultures) and stored in liquid nitrogen.
(§4) The cells were planted in 96 well plates (10^4 cells per well). […] WST-1 reactive of 10 µL was added in all wells. Following 4 h incubation, the measurements were carried out in a plate reader (Spectramax M5, BioTek, VT, USA) at wavelengths of 450 and 630 nm.

HT-29 = experiment: WST-1 cytotoxicity assay, HT-29; details: Homo sapiens
Procedure: as §3, §4

HeLa cells = experiment: WST-1 cytotoxicity assay, HeLa; details: Homo sapiens
Procedure: as §3, §4

O=c1[nH]cc(F)c(=O)[nH]1 [5-FU, 5-Fluorouracil, reference compound]
IC50 (HEK-293; HEK293, HEK-293, 24 h): 44.6 ± 7.2 µM | IC50 (HEK-293; HEK293, HEK-293, 48 h): 19.8 ± 2.3 µM | IC50 (HEK-293; HEK293, HEK-293, 72 h): 14.5 ± 3.2 µM | IC50 (PNT1-A; 24 h): 23.1 ± 4.55 µM | IC50 (PNT1-A; 48 h): 21.2 ± 2.2 µM | IC50 (PNT1-A; 72 h): 17.5 ± 7.6 µM | IC50 (MDA-MB-231; MDA-MB-231, 24 h): 42.6 ± 2.56 µM | IC50 (MDA-MB-231; MDA-MB-231, 48 h): 37.9 ± 12.3 µM | IC50 (MDA-MB-231; MDA-MB-231, 72 h): 21 ± 4.3 µM | IC50 (HT-29; HT-29, 24 h): 47.3 ± 1.2 µM | IC50 (HT-29; HT-29, 48 h): 23.4 ± 2.1 µM | IC50 (HT-29; HT-29, 72 h): 19.3 ± 1.2 µM | IC50 (HeLa cells; 24 h): 37.8 ± 4.3 µM | IC50 (HeLa cells; 48 h): 31.2 ± 2.3 µM | IC50 (HeLa cells; 72 h): 14.7 ± 0.6 µM
